Results: patent publication EP4647428A1, “COMPOUND CONTAINING 2-METHYL-2-(3-(PIPERIDIN-3-YL)PHENOXY)-2-METHYLPROPANAMIDE SKELETON” (Jiangsu Mingsheng Jutai Biotechnology Co. Ltd, priority 2023, dated 2024)

Test system: SW480
Experiment: CCK8 cell inhibition test on SW480 cells
Format: cell-based
Details: CCK-8, SW480 cells, 24 hours incubation at 37°C, compound 20 µM to 0.15625 µM in DMEM (2% FBS)
Experimental: Cells were digested, counted, and plated in a 96-well plate (flat-bottomed, transparent) with 10,000 cells/100 µl DMEM (10% FBS) per well . • 2. Observe the cell status on the next day and start adding drugs after the cells have fully adhered to the wall; • 3. Dilute the compound in DMEM (2% FBS) in a serial dilution format to concentrations of 20 µM, 10 µM, 5 µM, 2.5 µM, 1.25 µM, 0.625 µM, 0.3125 µM, 0.15625 µM, and 0 µM (with equal volume of DMSO). • 4. Add 100 µl of the above compounds at different concentrations to each well. Repeat for each concentration gradient in duplicate. Leave three blank wells (add only DMEM 2% FBS culture medium without cells) . • 5. Incubate at 37°C for 24 hours . • 6. Add 10 µl of CCK-8 Enhanced Solution to each well. Since the amount of CCK-8 added to each well is relatively small, there may be errors due to the reagent sticking to the well wall. It is recommended to gently tap the culture plate after adding the reagent to help mix it. • 7. Incubate in the incubator for 0.5-4 hours: The amount of formazan formed varies depending on the cell type. In most cases, incubation for 1 hour is sufficient. If color development is insufficient, continue incubation to confirm optimal conditions. • 8. Measure the absorbance at 450nm and 600nm (excluding interference from the reagent background color and the absorbance of the well plate itself); • 9. The final absorbance value is OD450nm-OD600nm, and the inhibition rate is calculated; Inhibition rate = [(Ac−As)/(Ac−Ab)] × 100% [formula] • As: absorbance of the experimental well (culture medium containing cells, CCK-8, and drug to be tested); • Ac: absorbance of control wells (culture medium containing cells, CCK-8, and no test drug); • Ab: absorbance of blank wells (culture medium without cells, test drugs, or CCK-8).

Row | Compound | IC50 (Homo sapiens) | other results
1 | CC(C)n1cc(-c2cccc(S(=O)(=O)N3CCCC(c4cccc(OC(C)(C)C(=O)NS(=O)(=O)c5ccc(C(F)(F)F)cc5)c4)C3)c2)cn1 (centres unmarked) [Compound 115-024, 2-(3-(1-((3-(1-isopropyl-1H-pyrazol-4-yl)phenyl)sulfonyl)piperidin-3-yl)phenoxy)-2-methyl-N-((4-(trifluoromethyl)phenyl)sulfonyl)propionamide] | 11.1 µM | –
2 | CC(C)c1ccc(-c2cncc(S(=O)(=O)N3CCCC(c4cccc(OC(C)(C)C(=O)NCC(=O)N5CCCC5CN)c4)C3)c2)cc1 (centres unmarked) [Compound 115-055, N-(2-(2-(Aminomethyl)pyrrolidin-1-yl)-2-oxoethyl)-2-(3-(1-((5-(4-isopropylphenyl)pyridin-3-yl)sulfonyl)piperidin-3-yl)phenoxy)-2-methylpropanamide] | 4.06 µM | –
3 | CC(C)c1ccc(-c2cccc(S(=O)(=O)N3CCCC(c4cccc(OC(C)(C)C(=O)NCC(=O)N5CC[C@H](CN)C5)c4)C3)c2)cc1 (some centres unmarked) [Compound 115-013] | 3.12 µM | –
4 | CC(C)c1ccc(-c2cccc(S(=O)(=O)N3CCCC(c4cccc(OC(C)(C)C(=O)NS(=O)(=O)c5ccc(C(F)(F)F)cc5)c4)C3)c2)cc1 (centres unmarked) [Compound 115, reference compound] | 2.81 µM | –
5 | CC(C)n1cc(-c2cccc(S(=O)(=O)N3CCCC(c4cccc(OC(C)(C)C(=O)NCC(=O)N5CCCC5CN)c4)C3)c2)cn1 (centres unmarked) [Compound 115-022, N-(2-(2-(Aminomethyl)pyrrolidin-1-yl)-2-oxoethyl)-2-(3-(1-((3-(1-isopropyl-1H-pyrazol-4-yl)phenyl)sulfonyl)piperidin-3-yl)phenoxy)-2-methylpropanamide] | 9.71 µM | –
6 | CC(C)(Oc1cccc(C2CCCN(C(=O)NCc3ccc(-c4cn[nH]c4)cc3)C2)c1)C(=O)NCC(=O)N1CCCC1CN (centres unmarked) [Compound 115-020, N-(4-(1H-pyrazol-4-yl)benzyl)-3-(3-((1-((2-(2-(aminomethyl)pyrrolidin-1-yl)-2-oxoethyl)amino)-2-methyl-1-oxopropanoyl)oxy)phenyl)piperidine-1-carboxamide] | – | SW480 IC50(µM): Inactive
7 | CC(C)c1ccc(-c2ccc(C(=O)N3CCCC(c4cccc(OC(C)(C)C(=O)NCC(=O)N5CCCC5CN)c4)C3)cc2)cc1 (centres unmarked) [Compound 115-030] | 3.12 to 6.25 µM | –
8 | CC(C)(Oc1cccc(C2CCCN(C(=O)Cc3ccc(-c4cn[nH]c4)cc3)C2)c1)C(=O)NCC(=O)N1CCCC1CN (centres unmarked) [Compound 115-028, 2-(3-(1-(2-(4-(1H-pyrazol-4-yl)phenyl)acetyl)piperidin-3-yl)phenoxy)-N-(2-(2-(aminomethyl)pyrrolidin-1-yl)-2-oxoethyl)-2-methylpropanamide] | 15.7 µM | –
9 | CC(C)(Oc1cccc(C2CCCN(C(=O)NCCc3ccc(-c4cn[nH]c4)cc3)C2)c1)C(=O)NCC(=O)N1CCCC1CN (centres unmarked) [Compound 115-021, N-(4-(1H-pyrazol-4-yl)phenethyl)-3-(3-((1-((2-(2-(aminomethyl)pyrrolidin-1-yl)-2-oxoethyl)amino)-2-methyl-1-oxopropanoyl)oxy)phenyl)piperidine-1-carboxamide] | – | SW480 IC50(µM): Inactive
10 | N-(2-((S)-2-(2-aminoethyl)pyrrolidin-1-yl)-2-oxoethyl)-2-(3-(1-((4'-isopropyl-[1,1'-biphenyl]-3-yl)sulf onylpiperidin-3-yl)phenoxy)-2-methylpropanamide) [Compound 115-014] | – | IC50: 52.9 µM
11 | CC(C)(Oc1cccc(C2CCCN(S(=O)(=O)c3ccc(-c4cn[nH]c4)cc3)C2)c1)C(=O)NS(=O)(=O)c1ccc(C(F)(F)F)cc1 (centres unmarked) [Compound 115-026, 2-(3-(1-((4-(1H-pyrazol-4-yl)phenyl)sulfonyl)piperidin-3-yl)phenoxy)-2-methyl-N-((4-(trifluoromethyl)phenyl)sulfonyl)propionamide] | – | SW480 IC50(µM): Inactive
12 | CC(C)(Oc1cccc(C2CCCN(S(=O)(=O)c3cccc(-c4cn[nH]c4)c3)C2)c1)C(=O)NCC(=O)N1CCCC1CN (centres unmarked) [Compound 115-023, 2-(3-(1-((3-(1H-pyrazol-4-yl)phenyl)sulfonyl)piperidin-3-yl)phenoxy)-N-(2-(2-(aminomethyl)pyrrolidin-1-yl)-2-oxoethyl)-2-methylpropanamide] | 30.5 µM | –
13 | CC(C)c1ccc(-c2ccc(CC(=O)N3CCCC(c4cccc(OC(C)(C)C(=O)NCC(=O)N5CCCC5CN)c4)C3)cc2)cc1 (centres unmarked) [Compound 115-031, N-(2-(2-(Aminomethyl)pyrrolidin-1-yl)-2-oxoethyl)-2-(3-(1-(2-(4'-isopropyl-[1,1'-biphenyl]-4-yl)acetyl)piperidin-3-yl)phenoxy)-2-methylpropanamide] | 6.99 µM | –
14 | CC(C)(Oc1cccc(C2CCCN(C(=O)c3ccc(-c4cn[nH]c4)cc3)C2)c1)C(=O)NCC(=O)N1CCCC1CN (centres unmarked) [Compound 115-027, 2-(3-(1-(4-(1H-pyrazol-4-yl)benzoyl)piperidin-3-yl)phenoxy)-N-(2-(2-(aminomethyl)pyrrolidin-1-yl)-2-oxoethyl)-2-methylpropanamide] | 23.1 µM | –
15 | CC(C)c1ccc(-c2cccc(S(=O)(=O)N3CCCC(c4cccc(OC(C)(C)C(=O)NCC(=O)N5CCCC5CN)c4)C3)n2)cc1 (centres unmarked) [Compound 115-052, N-(2-(2-(aminomethyl)pyrrolidin-1-yl)-2-oxoethyl)-2-(3-(1-((6-(4-isopropylphenyl)pyridin-2-yl)sulfonyl)piperidin-3-yl)phenoxy)-2-methylpropanamide] | ≤ 2.74 µM | –
16 | CC(C)c1ccc(-c2cccc(S(=O)(=O)N3CCCC(c4cccc(OC(C)(C)C(=O)NS(=O)(=O)N5CCC[C@@H]5CN)c4)C3)c2)cc1 (stereo partly drawn) [Compound 115-017, N-(2-(R)-(Aminomethyl)pyrrolidin-1-yl)sulfonyl)-2-(3-(1-((4'-isopropyl-[1,1'-biphenyl]-3-yl)sulfonylpiperidin-3-yl)phenoxy)-2-methylpropionamide] | 10.6 µM | –
17 | CC(C)c1ccc(-c2cccc(S(=O)(=O)N3CCC=C(c4cccc(OC(C)(C)C(=O)NCC(=O)N5CCCC5CN)c4)C3)c2)cc1 (centres unmarked) [Compound 115-049, N-(2-(2-(Aminomethyl)pyrrolidin-1-yl)-2-oxoethyl)-2-(3-(1-((4'-isopropyl-[1,1'-biphenyl]-3-yl)sulfonyl)-1,2,5,6-tetrahydropyridin-3-yl)phenoxy)-2-methylpropanamide] | ≤ 2.65 µM | –
18 | CC(C)c1ccc(-c2cccc(S(=O)(=O)N3CCCC(c4cccc(OC(C)(C)C(=O)NCC(=O)N5CCC[C@@H]5CN)c4)C3)c2)cc1 (some centres unmarked) [Compound 115-011] | 3.12 to 6.25 µM | –
19 | CC(C)(Oc1cccc(C2CCCN(S(=O)(=O)c3cccc(-c4cn[nH]c4)c3)C2)c1)C(=O)NS(=O)(=O)c1ccc(C(F)(F)F)cc1 (centres unmarked) [Compound 115-025, 2-(3-(1-((3-(1H-pyrazol-4-yl)phenyl)sulfonyl)piperidin-3-yl)phenoxy)-2-methyl-N-((4-(trifluoromethyl)phenyl)sulfonyl)propionamide] | – | SW480 IC50(µM): Inactive
20 | CC(C)(Oc1cccc(C2CCCN(C(=O)CCc3ccc(-c4cn[nH]c4)cc3)C2)c1)C(=O)NCC(=O)N1CCCC1CN (centres unmarked) [Compound 115-029, 2-(3-(1-(3-(4-(1H-pyrazol-4-yl)phenyl)propionyl)piperidin-3-yl)phenoxy)-N-(2-(2-(aminomethyl)pyrrolidin-1-yl)-2-oxoethyl)-2-methylpropionamide] | 20.8 µM | –
